Patent EP4775570A1, “CYP11A1 INHIBITOR, PREPARATION METHOD THEREFOR AND USE THEREOF” (Shenzhen Zhongge Biological Technology Co., Ltd., priority 2023, dated 2025)

Experiments:
CYP11A1 = biological target: T1, CYP11A1 (Homo sapiens, UniProt P05108); assay: NCI-H295R cellular pregnenolone biosynthesis inhibition assay (ELISA method); assay type: cell-based; settings: NCI-H295R cells, 3 days incubation, pregnenolone in cell supernatant by ELISA; read-out: IC50
T1 construct: host or cells: NCI-H295R
T1 sequence (P05108 40-521): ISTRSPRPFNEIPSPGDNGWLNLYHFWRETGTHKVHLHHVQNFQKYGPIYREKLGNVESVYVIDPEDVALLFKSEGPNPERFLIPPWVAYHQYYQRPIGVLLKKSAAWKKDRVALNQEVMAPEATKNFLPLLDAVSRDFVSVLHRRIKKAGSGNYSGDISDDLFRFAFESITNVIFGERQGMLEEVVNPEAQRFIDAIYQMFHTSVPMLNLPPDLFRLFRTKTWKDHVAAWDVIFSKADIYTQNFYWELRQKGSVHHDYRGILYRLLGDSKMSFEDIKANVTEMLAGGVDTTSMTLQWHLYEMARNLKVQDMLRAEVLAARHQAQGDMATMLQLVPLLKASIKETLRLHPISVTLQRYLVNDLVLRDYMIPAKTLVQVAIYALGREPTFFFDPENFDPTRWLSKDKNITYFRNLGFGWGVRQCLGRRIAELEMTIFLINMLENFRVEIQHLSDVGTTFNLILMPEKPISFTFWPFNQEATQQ
Description: The experiment aims to test the inhibitory effect of the compounds of the present disclosure on cellular pregnenolone biosynthesis, and to assess the inhibitory effect of the compounds on CYP11A1 target based on their IC50 values.
NCI-H295R cells (MINGZHOUBIO, MZ-2138) cultured in NCI-H295R complete medium (MINGZHOUBIO, MCM-0399).
Using culture medium, NCI-H295R cells were seeded into a new 384-well cell culture plate (Greiner, 781091) at a density of 5,000 cells per well, with 45µL of cell suspension per well. The test compounds were prepared by adding 5µL of compound solution at 10× concentration to each well, to a maximum final concentration of 10µM, followed by 3× serial dilution for 10 points, with a final DMSO concentration of 0.1%, centrifuging at 1,000 rpm for 1 minute at room temperature, and then incubating in a 5% CO2 cell incubator at 37°C for 3 days.
Pregnenolone ELISA kit (Abnova, KA1912) was used for detecting the content of pregnenolone in the supernatant of cell culture. Before detection, the reagents were allowed to come back to room temperature for 1 hour. After taking out the 384-well plate, the cellular supernatant was pipetted and subjected to 5× dilution with the Assay Buffer provided in the kit. A working solution of competitive molecule and a washing solution in accordance with the instructions was prepared. 50µL of diluted cellular supernatant were pipetted into the 96-well plate provided in the ELISA kit, added with 100µL of working solution of competitive molecule per well and the plate was incubated at room temperature for 1.5 hours. After discarding the liquid, the plate was washed with 300µL of washing solution per well three times and dried. After adding 150 µL of substrate chromogenic solution per well, the plate was incubated at room temperature for 10-15 minutes. After adding 50 µL of termination solution per well, the plate was incubated at room temperature for 10-15 minutes and read for absorbance at 450nm with Envision HTS Multilabel Reader.
The wells added with 1µM ODM-208 were defined as 100% inhibition (positive control), the wells containing DMSO at a final concentration of 0.1% were defined as 0% inhibition (negative control), and inhibitory ratio = (absorbance of tested sample - average absorbance of negative control)/(average absorbance of positive control - average absorbance of negative control)*100%. The data were subjected to four-parameter fitting using GraphPad Prism to calculate the IC50 values of the compounds.

[1] = PK study, intravenous and oral administration, plasma LC-MS/MS; assay type: in vivo; settings: both sexes, 5 mg/kg, oral administration of 5 mpk, species not given (ICR mice or SD Rat); for bioavailability: read-out: bioavailability (F); for half-life: read-out: half-life (t1/2) (converted)
Description: ICR mice (male/female, total 6 animals) were assigned to two groups for oral administration and intravenous administration, respectively, with 3 mice in each group. Before administration, the animals were fasted for 10-14 hours, with water available ad lib.
SD Rat (male/female, total 6 animals) were assigned to two groups for oral administration and intravenous administration, respectively, with 3 mice in each group. Before administration, the animals were fasted for 10-14 hours, with water available ad lib.
The compounds to be tested were weighed out in accordance with intended dosage, formulated with vehicles (5% DMSO + 10% Solutol + 85% physiological saline) to dosage form at appropriate concentrations (administered intravenously and orally in rats or mice at a volume of 5 mL/kg and 10 mL/kg, respectively). The dosage form for intravenous injection is a clear solution, and the dosage form for oral administration is a clear solution or homogenous suspension.
Administration to animals was conducted through intravenous injection and oral gavage, and blood samples were collected at 0.033, 0.083, 0.25, 0.5, 1, 2, 4, 8, and 24 hours after intravenous injection, or at 0.083, 0.25, 0.5, 1, 2, 4, 6, 8, and 24 hours after oral administration. After centrifugation of whole blood samples at 4°C and 6,800g for 6 minutes, the upper layers of plasma were stored at -80°C refrigerator before analysis.
The DMSO stock solutions of the substance to be tested were diluted with methanol or acetonitrile solution to serial working solutions and added to blank plasma matrix to formulate samples for standard curve and quality control. An appropriate volume of plasma sample was added with appropriate fold of methanol or acetonitrile containing internal standards, according to response, for protein precipitation. After centrifugation of all samples at 4°C and 18,000g for 10 min, appropriate volumes of supernatant were taken for LC-MS/MS analysis.
Plasma drug concentration-time curves were plotted in accordance with tested concentrations, and pharmacokinetic parameters were calculated based on non-compartmental model using WinNonlin software, including half-life (T1/2), area under the drug concentration-time curve (AUC0-t), clearance rate (CL), steady-state distribution volume (Vss), bioavailability (F), etc.

IC50 (CYP11A1)	AUC [1]	Cmax [1]	bioavailability [1]	half-life [1]	Compound
< 100 nM	> 1700 ng·h/mL	> 1000 ng/mL	> 60%	–	Cn1c(CN2Cc3ccccc3C2)c(F)cc(C=CC2CCN(C(=O)CC#N)CC2)c1=O [compound 112]
< 100 nM	> 1700 ng·h/mL	–	> 60%	> 3 h	Cn1c(CN2Cc3ccccc3C2)c(F)cc(CCC2CCN(S(C)(=O)=O)CC2)c1=O [compound 72]
< 100 nM	> 1700 ng·h/mL	–	–	> 3 h	COc1cc(CN2Cc3ccccc3C2)ccc1CCC1CCN(S(C)(=O)=O)CC1 [compound 53]
